# What was measured:
# Type in all cases: binding
# 44 protein targets = experiment: Selectivity screen against 44 protein targets (whole panel); conditions: 10 μM; % inhibition less than 50% is considered no effect
# Description: (§1) If the % inhibition is less than 50%, the test compounds is consider to have no effect.
# beta 2(h) = beta 2(h) (Homo sapiens, UniProt P07550); experiment: Selectivity screen, radioligand displacement; conditions: read-out: % Inhib beta 2(h)
# Description: as §1
# M2 (h) = M2 (h) (Homo sapiens, UniProt P08172); experiment: Selectivity screen, radioligand displacement; conditions: read-out: % Inhib M2 (h)
# Sequence of M2 (h) (P08172 whole entry): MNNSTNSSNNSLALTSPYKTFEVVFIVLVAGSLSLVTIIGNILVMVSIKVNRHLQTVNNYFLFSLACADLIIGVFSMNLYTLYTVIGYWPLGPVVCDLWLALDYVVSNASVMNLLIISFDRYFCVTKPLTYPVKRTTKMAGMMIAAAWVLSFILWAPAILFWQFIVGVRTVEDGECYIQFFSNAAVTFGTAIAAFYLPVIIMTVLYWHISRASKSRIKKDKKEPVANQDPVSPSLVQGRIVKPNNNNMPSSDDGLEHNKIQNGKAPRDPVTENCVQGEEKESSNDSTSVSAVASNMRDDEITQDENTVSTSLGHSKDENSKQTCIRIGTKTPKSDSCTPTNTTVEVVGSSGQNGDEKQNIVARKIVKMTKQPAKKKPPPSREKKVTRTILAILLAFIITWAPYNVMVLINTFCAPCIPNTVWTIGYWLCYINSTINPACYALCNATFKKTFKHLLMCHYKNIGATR
# Description: as §1
# 5-HT1B = 5-HT1B (Rattus norvegicus, UniProt P28564); experiment: Selectivity screen, radioligand displacement; conditions: read-out: % Inhib 5-HT1B
# Description: as §1
# dopamine transporter (h) = dopamine transporter (h) (Homo sapiens, UniProt Q01959); experiment: Selectivity screen, radioligand displacement; conditions: read-out: % Inhib dopamine transporter (h)
# Description: as §1
# [1] = system: Ca2+ channel (L, dihydropyridine); experiment: Selectivity screen, radioligand displacement; conditions: Compound 42 at 10 μM
# Description: as §1
# H2 (h) = H2 (h) (Homo sapiens, UniProt P25021); experiment: Selectivity screen, radioligand displacement; conditions: read-out: % Inhib H2 (h)
# Sequence of H2 (h) (P25021 whole entry): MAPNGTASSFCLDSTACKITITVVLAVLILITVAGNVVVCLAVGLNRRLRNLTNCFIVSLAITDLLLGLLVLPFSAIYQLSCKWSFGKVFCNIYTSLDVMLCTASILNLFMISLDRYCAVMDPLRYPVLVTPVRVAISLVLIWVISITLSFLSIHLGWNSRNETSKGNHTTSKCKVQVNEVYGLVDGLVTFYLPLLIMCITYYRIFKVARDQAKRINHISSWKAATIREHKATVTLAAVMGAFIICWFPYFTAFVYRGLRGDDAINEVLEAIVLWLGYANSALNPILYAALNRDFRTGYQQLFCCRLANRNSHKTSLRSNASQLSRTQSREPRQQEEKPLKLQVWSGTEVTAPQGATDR
# Description: as §1
# COX1(h) = COX1(h) (Homo sapiens, UniProt P23219); experiment: Selectivity screen, radioligand displacement; conditions: read-out: % Inhib COX1(h)
# Description: as §1
# CB1 (h) = CB1 (h) (Homo sapiens, UniProt P21554); experiment: Selectivity screen, radioligand displacement; conditions: read-out: % Inhib CB1 (h)
# Description: as §1
# MAO-A = MAO-A (Rattus norvegicus, UniProt P21396); experiment: Selectivity screen, radioligand displacement; conditions: read-out: % Inhib MAO-A
# Sequence of MAO-A (P21396 whole entry): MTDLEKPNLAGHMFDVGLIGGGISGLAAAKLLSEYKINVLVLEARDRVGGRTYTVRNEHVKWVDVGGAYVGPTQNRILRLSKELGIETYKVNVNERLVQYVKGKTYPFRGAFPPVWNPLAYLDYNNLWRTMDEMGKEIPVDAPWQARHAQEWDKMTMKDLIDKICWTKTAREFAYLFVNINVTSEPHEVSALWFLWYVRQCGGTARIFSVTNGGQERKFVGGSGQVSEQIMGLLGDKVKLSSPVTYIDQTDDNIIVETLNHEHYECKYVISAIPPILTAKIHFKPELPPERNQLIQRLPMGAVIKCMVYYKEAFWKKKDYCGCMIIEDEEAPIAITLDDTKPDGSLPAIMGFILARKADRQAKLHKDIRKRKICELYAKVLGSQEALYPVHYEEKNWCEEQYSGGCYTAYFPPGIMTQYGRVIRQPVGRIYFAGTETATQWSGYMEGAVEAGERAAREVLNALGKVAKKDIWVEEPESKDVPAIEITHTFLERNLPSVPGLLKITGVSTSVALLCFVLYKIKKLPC
# Description: as §1
# 5-HT2B (h) = 5-HT2B (h) (Homo sapiens, UniProt P41595); experiment: Selectivity screen, radioligand displacement; conditions: read-out: % Inhib 5-HT2B (h)
# Description: as §1
# alpha 2A (h) = alpha 2A (h) (Homo sapiens, UniProt P08913); experiment: Selectivity screen, radioligand displacement; conditions: read-out: % Inhib alpha 2A (h)
# Description: as §1
# delta (DOP) (h) = delta (DOP) (h) (Homo sapiens, UniProt P41143); experiment: Selectivity screen, radioligand displacement; conditions: read-out: % Inhib delta (DOP) (h)
# Sequence of delta (DOP) (h) (P41143 whole entry): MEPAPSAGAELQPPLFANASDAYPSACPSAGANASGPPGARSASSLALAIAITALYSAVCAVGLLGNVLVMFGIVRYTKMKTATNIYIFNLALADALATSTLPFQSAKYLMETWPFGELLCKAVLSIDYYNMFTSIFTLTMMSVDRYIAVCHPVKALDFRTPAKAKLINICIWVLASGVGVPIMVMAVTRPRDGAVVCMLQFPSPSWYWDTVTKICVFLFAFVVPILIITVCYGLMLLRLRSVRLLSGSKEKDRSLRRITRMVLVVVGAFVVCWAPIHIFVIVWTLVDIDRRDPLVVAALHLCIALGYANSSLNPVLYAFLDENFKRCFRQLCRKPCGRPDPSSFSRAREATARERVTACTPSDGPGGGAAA
# Description: as §1
# Lck kinase (h) = Lck kinase (h) (Homo sapiens, UniProt P06239); experiment: Selectivity screen, radioligand displacement; conditions: read-out: % Inhib Lck kinase (h)
# Description: as §1
# COX2(h) = COX2(h) (Homo sapiens, UniProt P35354); experiment: Selectivity screen, radioligand displacement; conditions: read-out: % Inhib COX2(h)
# Sequence of COX2(h) (P35354 18-604): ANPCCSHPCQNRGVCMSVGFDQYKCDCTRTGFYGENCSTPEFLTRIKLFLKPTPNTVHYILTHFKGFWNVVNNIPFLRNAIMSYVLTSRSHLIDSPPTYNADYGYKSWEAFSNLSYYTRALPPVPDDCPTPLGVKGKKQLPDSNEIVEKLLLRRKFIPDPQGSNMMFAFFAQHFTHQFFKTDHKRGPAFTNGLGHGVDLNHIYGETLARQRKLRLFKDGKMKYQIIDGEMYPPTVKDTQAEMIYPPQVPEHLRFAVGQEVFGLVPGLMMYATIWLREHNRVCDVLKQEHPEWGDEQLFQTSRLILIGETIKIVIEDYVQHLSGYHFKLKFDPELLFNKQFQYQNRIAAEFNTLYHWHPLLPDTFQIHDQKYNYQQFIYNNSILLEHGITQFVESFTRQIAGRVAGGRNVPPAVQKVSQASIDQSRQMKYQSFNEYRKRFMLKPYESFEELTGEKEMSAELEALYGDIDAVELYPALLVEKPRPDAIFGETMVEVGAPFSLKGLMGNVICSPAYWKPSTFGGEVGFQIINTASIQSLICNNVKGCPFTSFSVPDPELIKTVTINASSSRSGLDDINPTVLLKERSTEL
# Description: as §1
# CCK1 (CCKA) (h) = CCK1 (CCKA) (h) (Homo sapiens, UniProt P32238); experiment: Selectivity screen, radioligand displacement; conditions: read-out: % Inhib CCK1 (CCKA) (h)
# Description: as §1
# PDE4D2 (h) = PDE4D2 (h) (Homo sapiens, UniProt Q08499); experiment: Selectivity screen, radioligand displacement; conditions: read-out: % Inhib PDE4D2 (h)
# Description: as §1
# A2A(h) = A2A(h) (Homo sapiens, UniProt P29274); experiment: Selectivity screen, radioligand displacement; conditions: read-out: % Inhib A2A(h)
# Description: as §1
# kappa (KOP) = kappa (KOP) (Rattus norvegicus, UniProt P34975); experiment: Selectivity screen, radioligand displacement; conditions: read-out: % Inhib kappa (KOP)
# Sequence of kappa (KOP) (P34975 whole entry): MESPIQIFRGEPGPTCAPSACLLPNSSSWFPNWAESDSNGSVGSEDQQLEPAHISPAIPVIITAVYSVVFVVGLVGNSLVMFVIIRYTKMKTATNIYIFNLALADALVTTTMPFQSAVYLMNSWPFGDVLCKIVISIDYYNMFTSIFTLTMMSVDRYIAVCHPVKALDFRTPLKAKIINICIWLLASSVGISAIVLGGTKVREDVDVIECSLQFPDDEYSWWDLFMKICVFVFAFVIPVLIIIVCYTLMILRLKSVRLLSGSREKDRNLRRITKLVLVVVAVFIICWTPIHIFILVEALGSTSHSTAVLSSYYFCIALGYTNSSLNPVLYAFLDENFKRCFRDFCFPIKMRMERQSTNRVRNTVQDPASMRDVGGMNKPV
# Description: as §1
# CB2 (h) = CB2 (h) (Homo sapiens, UniProt P34972); experiment: Selectivity screen, radioligand displacement; conditions: read-out: % Inhib CB2 (h)
# Sequence of CB2 (h) (P34972 whole entry): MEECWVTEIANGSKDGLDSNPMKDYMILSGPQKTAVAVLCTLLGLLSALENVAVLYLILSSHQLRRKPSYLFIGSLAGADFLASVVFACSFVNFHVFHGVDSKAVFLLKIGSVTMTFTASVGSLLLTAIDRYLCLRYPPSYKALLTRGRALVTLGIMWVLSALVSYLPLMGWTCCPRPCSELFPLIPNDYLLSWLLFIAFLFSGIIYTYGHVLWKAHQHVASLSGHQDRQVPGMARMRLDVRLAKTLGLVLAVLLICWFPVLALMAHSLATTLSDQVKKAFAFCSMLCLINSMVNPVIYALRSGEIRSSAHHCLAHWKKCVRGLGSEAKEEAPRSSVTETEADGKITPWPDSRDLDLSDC
# Description: as §1
# beta 1 (h) = beta 1 (h) (Homo sapiens, UniProt P08588); experiment: Selectivity screen, radioligand displacement; conditions: read-out: % Inhib beta 1 (h)
# Description: as §1
# 5-HT3 (h) = 5-HT3 (h) (Homo sapiens, UniProt P46098); experiment: Selectivity screen, radioligand displacement; conditions: read-out: % Inhib 5-HT3 (h)
# Description: as §1
# PDE3A (h) = PDE3A (h) (Homo sapiens, UniProt Q14432); experiment: Selectivity screen, radioligand displacement; conditions: read-out: % Inhib PDE3A (h)
# Sequence of PDE3A (h) (Q14432 whole entry): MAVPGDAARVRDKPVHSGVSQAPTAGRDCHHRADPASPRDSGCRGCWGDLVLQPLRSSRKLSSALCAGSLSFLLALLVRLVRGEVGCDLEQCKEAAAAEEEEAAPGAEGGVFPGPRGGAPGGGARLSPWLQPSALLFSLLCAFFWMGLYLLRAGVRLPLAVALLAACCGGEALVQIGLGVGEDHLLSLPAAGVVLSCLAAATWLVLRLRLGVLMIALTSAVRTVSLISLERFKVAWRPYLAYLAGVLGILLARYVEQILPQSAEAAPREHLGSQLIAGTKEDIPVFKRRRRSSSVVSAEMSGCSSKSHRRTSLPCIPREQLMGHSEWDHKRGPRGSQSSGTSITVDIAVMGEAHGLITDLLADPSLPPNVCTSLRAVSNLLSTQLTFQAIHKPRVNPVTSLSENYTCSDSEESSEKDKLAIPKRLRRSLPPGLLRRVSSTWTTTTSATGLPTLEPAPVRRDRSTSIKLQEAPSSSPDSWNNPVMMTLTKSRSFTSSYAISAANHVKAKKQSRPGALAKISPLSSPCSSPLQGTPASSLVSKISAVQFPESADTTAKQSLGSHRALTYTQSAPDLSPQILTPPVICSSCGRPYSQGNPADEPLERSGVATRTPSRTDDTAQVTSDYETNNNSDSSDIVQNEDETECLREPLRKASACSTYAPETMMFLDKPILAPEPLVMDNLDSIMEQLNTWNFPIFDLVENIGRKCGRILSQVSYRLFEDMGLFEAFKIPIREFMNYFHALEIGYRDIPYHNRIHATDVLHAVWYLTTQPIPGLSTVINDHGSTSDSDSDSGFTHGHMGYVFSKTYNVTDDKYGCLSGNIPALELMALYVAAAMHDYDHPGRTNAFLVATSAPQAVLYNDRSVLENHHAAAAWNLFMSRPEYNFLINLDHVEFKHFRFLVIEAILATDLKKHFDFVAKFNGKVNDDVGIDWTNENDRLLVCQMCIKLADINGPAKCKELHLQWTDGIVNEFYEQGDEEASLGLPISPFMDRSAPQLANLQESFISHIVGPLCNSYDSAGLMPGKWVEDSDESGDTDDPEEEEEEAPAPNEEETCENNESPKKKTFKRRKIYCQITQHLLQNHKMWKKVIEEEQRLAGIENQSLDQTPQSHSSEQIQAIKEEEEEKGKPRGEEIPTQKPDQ
# Description: as §1
# hERG potassium channel = hERG potassium channel (Homo sapiens, UniProt Q12809); experiment: Selectivity screen, radioligand displacement; conditions: read-out: % Inhib Potassium Channel hERG (human)
# Description: as §1
# H1 (h) = H1 (h) (Homo sapiens, UniProt P35367); experiment: Selectivity screen, radioligand displacement
# Description: as §1
# 5-HT transporter (h) = 5-HT transporter (h) (Homo sapiens, UniProt P31645); experiment: Selectivity screen, radioligand displacement; conditions: read-out: % Inhib 5-HT transporter (h)
# Description: as §1
# alpha 1A (h) = alpha 1A (h) (Homo sapiens, UniProt P35348); experiment: Selectivity screen, radioligand displacement; conditions: read-out: % Inhib alpha 1A (h)
# Description: as §1
# acetylcholinesterase (h) = acetylcholinesterase (h) (Homo sapiens, UniProt P22303); experiment: Selectivity screen, radioligand displacement; conditions: read-out: % Inhib acetylcholinesterase (h)
# Sequence of acetylcholinesterase (h) (P22303 32-614): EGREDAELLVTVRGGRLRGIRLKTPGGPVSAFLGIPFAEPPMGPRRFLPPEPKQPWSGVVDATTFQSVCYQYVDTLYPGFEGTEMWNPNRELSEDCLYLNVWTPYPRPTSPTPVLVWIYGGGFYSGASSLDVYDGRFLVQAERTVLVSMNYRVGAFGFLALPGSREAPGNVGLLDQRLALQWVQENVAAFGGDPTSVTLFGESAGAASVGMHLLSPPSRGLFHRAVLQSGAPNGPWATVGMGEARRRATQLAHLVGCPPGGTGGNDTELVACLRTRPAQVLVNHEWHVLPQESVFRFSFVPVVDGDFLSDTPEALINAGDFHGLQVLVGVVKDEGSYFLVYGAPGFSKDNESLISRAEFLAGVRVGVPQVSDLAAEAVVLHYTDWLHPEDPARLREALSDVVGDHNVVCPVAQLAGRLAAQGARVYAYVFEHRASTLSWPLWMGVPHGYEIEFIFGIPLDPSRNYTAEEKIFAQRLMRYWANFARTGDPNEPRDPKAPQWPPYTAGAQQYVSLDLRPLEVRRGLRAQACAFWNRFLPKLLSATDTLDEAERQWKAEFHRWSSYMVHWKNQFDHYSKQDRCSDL
# Description: as §1
# [2] = target: norepinephrine transporter (h) (Homo sapiens, UniProt P23975); experiment: Selectivity screen, radioligand displacement; conditions: read-out: % Inhib norepinephrine transporter (h)
# Description: as §1
# D1 (h) = D1 (h) (Homo sapiens, UniProt P21728); experiment: Selectivity screen, radioligand displacement
# Description: as §1
# ETA (h) = ETA (h) (Homo sapiens, UniProt P25101); experiment: Selectivity screen, radioligand displacement; conditions: read-out: % Inhib ETA (h)
# Description: as §1
# 5-HT2A (h) = 5-HT2A (h) (Homo sapiens, UniProt P28223); experiment: Selectivity screen, radioligand displacement; conditions: read-out: % Inhib 5-HT2A (h)
# Description: as §1
compound,measurement,setting,value
"Cc1ccccc1C(=O)Nc1nc(NC(=O)c2ccccc2C)n(-c2ccc(OC(F)(F)F)cc2)n1 [Compound 42, N,N′-(1-(4-(trifluoromethoxy)phenyl)-1H-1,2,4-triazole-3,5-diyl)bis(2-methylbenzamide)]",effect against the 44 protein targets,44 protein targets,no effects
same,inhibition at 10 µM,beta 2(h),9%
same,inhibition at 10 µM,M2 (h),< 1%
same,inhibition at 10 µM,5-HT1B,1%
same,inhibition at 10 µM,dopamine transporter (h),13%
same,"% Inhib Ca2+ channel (L, dihydropyridine)",[1],45%
same,inhibition at 10 µM,H2 (h),< 1%
same,inhibition at 10 µM,COX1(h),19%
same,inhibition at 10 µM,CB1 (h),< 1%
same,inhibition at 10 µM,MAO-A,4%
same,inhibition at 10 µM,5-HT2B (h),< 1%
same,inhibition at 10 µM,alpha 2A (h),< 1%
same,inhibition at 10 µM,delta (DOP) (h),9%
same,inhibition at 10 µM,Lck kinase (h),8%
same,inhibition at 10 µM,COX2(h),1%
same,inhibition at 10 µM,CCK1 (CCKA) (h),< 1%
same,inhibition at 10 µM,PDE4D2 (h),35%
same,inhibition at 10 µM,A2A(h),7%
same,inhibition at 10 µM,kappa (KOP),3%
same,inhibition at 10 µM,CB2 (h),< 1%
same,inhibition at 10 µM,beta 1 (h),< 1%
same,inhibition at 10 µM,5-HT3 (h),< 1%
same,inhibition at 10 µM,PDE3A (h),13%
same,inhibition at 10 µM,hERG potassium channel,1%
same,inhibition at 10 µM,H1 (h),< 1%
same,inhibition at 10 µM,5-HT transporter (h),10%
same,inhibition at 10 µM,alpha 1A (h),16%
same,inhibition at 10 µM,acetylcholinesterase (h),1%
same,inhibition at 10 µM,[2],1%
same,inhibition at 10 µM,D1 (h),< 1%
same,inhibition at 10 µM,ETA (h),< 1%
same,inhibition at 10 µM,5-HT2A (h),4%
